{"source": "patent US20230218648A1", "about": "“USE OF HUMAN MILK OLIGOSACCHARIDES IN NUTRITIONAL COMPOSITIONS FOR ENHANCING BONE DEVELOPMENT AND/OR BONE STRENGTH” (SOCIETE DES PRODUITS NESTLE S.A., priority 2020, published 2023)", "origin": "cited, not measured here", "test_system": "osteoclast and osteoblast biology", "details": "reported by C.A. Cowardin et al., PNAS, 2019, 116", "data": [{"substance": "2′-fucosyllactose [2′-FL]", "values": [{"measurement": "changes in bone-biology", "value": "failed to elicit changes in bone-biology"}]}]}
